This is an account of results in patent publication US20160038526A1, “TREATMENT OF PROSTATE CANCER” (THOMAS JEFFERSON UNIVERSITY, priority 2012, published 2016).

In one experiment the test system is Bcl-xL. Briefly: Expression of Stat5 target gene Bcl-xL in CWR22Rv1 and LNCaP cells (immunoblot). Format: cell-based, human. Particulars: 25 μM over time. On the procedure:
Exponentially growing CWR22Rv1 and LNCaP cells were treated with N6BAP or the control compound C5 (Ctrl) for 48 h at concentrations indicated in FIG. 6 and whole cell lysates were immunoblotted with anti-cyclinD1 mAb. Exponentially growing CWR22Rv1 and LNCaP cells were treated with N6BAP or control compound C5 (Ctrl) at 25 μM for the periods of time indicated in FIG. 6, and whole cell lysates were immunoblotted with anti-cyclinD1 mAb or anti-Bcl-X1 pAb. Cell pellets were solubilized in lysis buffer [10 mM Tris-HCl (pH 7.6), 5 mM EDTA, 50 mM sodium chloride, 30 mM sodium pyrophosphate, 50 mM sodium fluoride, 1 mM sodium orthovanadate, 1% Triton X-100, 1 mM phenylmethylsulfonyl fluoride, 5 μg/ml aprotinin, 1 μg/ml pepstatin A, and […]], rotated end-over-end at 4° C. for 60 min, and insoluble material was pelleted at 12,000×g for 30 min at 4° C. The protein concentrations of clarified cell lysates were determined by simplified Bradford method (Bio-Rad Laboratories, Hercules, Calif.). The following primary antibodies were used for Western blotting, at the following concentrations: anti-β-actin pAb (1:4,000; Sigma), anti-cyclin D1 mAb (1:1000, BD Biosciences) and Bcl-xL pAb (1:1000, Cell Signaling, Danvers, Mass.).
In general terms: In western blotting, separated proteins are transferred to a membrane and probed.

In the next experiment the target is Stat3 (Homo sapiens, UniProt P40763). Briefly: IL-6-induced nuclear translocation of Stat3 in DU145 cells (immunofluorescence). It is filed as cell-based. More on the design: endogenous in cells; host or cells: DU145. Particulars: 2 hours pretreatment, 10 nmol/L IL-6 30 minutes. On the procedure: DU145 prostate cancer cells were pretreated with N6BAP or vehicle (DMSO) for 2 hours and then stimulated with 10 nmol/L IL-6 for 30 minutes. Cells were fixed with 100% methanol for 15 min and subsequently permeabilized with 0.1% Triton X-100 in PBS (pH 7.4). After blocking with 2% bovine serum albumin in PBS, cells were incubated with an antibody specific for Stat3 at 4° C. for 2 hours. Cells were then washed with PBS and incubated with FITC-conjugated secondary antibody (Jackson ImmunoResearch) at room temperature for 1 hour. The images were taken by using an inverted fluorescence microscopy (Carl Zeiss).
Chain of Stat3 (P40763 whole entry, species assumed): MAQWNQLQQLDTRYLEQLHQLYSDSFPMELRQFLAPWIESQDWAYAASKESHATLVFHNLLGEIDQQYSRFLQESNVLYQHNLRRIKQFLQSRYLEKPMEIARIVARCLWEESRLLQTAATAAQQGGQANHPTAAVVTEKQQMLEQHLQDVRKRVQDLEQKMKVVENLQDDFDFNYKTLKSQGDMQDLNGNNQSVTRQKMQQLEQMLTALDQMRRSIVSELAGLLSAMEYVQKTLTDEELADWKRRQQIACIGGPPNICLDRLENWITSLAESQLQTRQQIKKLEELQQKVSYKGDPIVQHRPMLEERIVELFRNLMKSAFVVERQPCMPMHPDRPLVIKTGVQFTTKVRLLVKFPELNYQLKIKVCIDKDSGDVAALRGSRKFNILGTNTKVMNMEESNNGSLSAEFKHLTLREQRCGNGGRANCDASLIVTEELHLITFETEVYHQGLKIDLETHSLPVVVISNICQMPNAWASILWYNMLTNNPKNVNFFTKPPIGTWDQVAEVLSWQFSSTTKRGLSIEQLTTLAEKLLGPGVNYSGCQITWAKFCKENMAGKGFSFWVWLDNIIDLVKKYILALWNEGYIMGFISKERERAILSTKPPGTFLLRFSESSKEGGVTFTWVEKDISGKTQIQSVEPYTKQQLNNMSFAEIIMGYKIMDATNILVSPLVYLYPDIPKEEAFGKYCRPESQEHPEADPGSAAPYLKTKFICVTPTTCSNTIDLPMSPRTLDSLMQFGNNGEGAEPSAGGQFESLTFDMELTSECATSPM

With `O=P(O)(O)OC[C@H]1O[C@@H](n2cnc3c(NCc4ccccc4)ncnc32)[C@H](O)[C@@H]1O` [N6BAP, N^6-benzyladenosine-5′-monophosphate], the “expression of Bcl-xL” value with Bcl-xL is on record as “down-regulates expression”. The “nuclear translocation of IL-6-induced Stat3” value on Stat3 is on record as “did not block translocation of Stat3 to the nucleus”.
